According to ChEMBL document CHEMBL4385653, “Design, synthesis, biological evaluation of benzoyl amide derivatives containing nitrogen heterocyclic ring as potential VEGFR-2 inhibitors” (Bioorg Med Chem, 2019):

Tests used:
HepG2 = assay: Antiproliferative activity against human HepG2 cells assessed as inhibition of cell proliferation incubated for 48 hrs by MTT assay; type: functional, cell-based; conditions: HepG2, 48 h
HeLa = assay: Antiproliferative activity against human HeLa cells assessed as inhibition of cell proliferation incubated for 48 hrs by MTT assay; type: functional, cell-based
MCF7 = assay: Antiproliferative activity against human MCF7 cells assessed as inhibition of cell proliferation incubated for 48 hrs by MTT assay; type: functional, cell-based; conditions: MCF7, 48 h
[1] = Cytotoxicity in HEK293T cells assessed as reduction in cell viability incubated for 48 hrs by MTT assay; type: cell-based, HEK-293T; conditions: human
A549 = assay: Antiproliferative activity against human A549 cells assessed as inhibition of cell proliferation incubated for 48 hrs by MTT assay; type: functional, cell-based; conditions: A549, 48 h
[2] = molecular target: Epidermal growth factor receptor (Homo sapiens, UniProt P00533); assay: Inhibition of EGFR (unknown origin) incubated for 30 mins by enzyme immunoassay
[3] = Inhibition of PDGFR (unknown origin) incubated for 30 mins by enzyme immunoassay; set-up: species or system Homo sapiens
[4] = molecular target: Vascular endothelial growth factor receptor 2 (Homo sapiens, UniProt P35968); assay: Inhibition of VEGFR2 (unknown origin) incubated for 30 mins by enzyme immunoassay
[5] = molecular target: Fibroblast growth factor receptor 1 (Homo sapiens, UniProt P11362); assay: Inhibition of bFGFR (unknown origin) incubated for 30 mins by enzyme immunoassay
Fibroblast growth factor receptor 1, sequence (P11362 whole entry): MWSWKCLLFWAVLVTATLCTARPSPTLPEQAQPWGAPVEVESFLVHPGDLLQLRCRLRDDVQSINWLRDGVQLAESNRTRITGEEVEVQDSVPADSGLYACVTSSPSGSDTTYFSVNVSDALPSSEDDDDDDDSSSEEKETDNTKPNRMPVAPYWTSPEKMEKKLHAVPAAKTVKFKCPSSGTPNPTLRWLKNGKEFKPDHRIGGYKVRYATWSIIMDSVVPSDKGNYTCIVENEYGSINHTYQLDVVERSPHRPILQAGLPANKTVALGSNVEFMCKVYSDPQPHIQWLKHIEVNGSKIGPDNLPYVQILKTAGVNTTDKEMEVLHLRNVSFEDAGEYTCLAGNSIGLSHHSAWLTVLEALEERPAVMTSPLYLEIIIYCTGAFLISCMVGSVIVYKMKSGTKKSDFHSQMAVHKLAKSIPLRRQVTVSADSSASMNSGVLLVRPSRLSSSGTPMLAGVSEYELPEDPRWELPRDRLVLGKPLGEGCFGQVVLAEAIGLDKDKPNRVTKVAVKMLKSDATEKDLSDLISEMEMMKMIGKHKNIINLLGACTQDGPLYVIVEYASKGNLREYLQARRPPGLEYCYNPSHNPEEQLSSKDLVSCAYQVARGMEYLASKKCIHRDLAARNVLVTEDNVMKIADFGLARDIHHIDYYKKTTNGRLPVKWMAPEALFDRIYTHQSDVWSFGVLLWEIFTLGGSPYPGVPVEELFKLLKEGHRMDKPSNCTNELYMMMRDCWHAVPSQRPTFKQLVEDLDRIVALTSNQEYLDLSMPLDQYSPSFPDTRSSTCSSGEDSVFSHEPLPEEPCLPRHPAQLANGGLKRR

Vascular endothelial growth factor receptor 2, sequence (P35968 whole entry): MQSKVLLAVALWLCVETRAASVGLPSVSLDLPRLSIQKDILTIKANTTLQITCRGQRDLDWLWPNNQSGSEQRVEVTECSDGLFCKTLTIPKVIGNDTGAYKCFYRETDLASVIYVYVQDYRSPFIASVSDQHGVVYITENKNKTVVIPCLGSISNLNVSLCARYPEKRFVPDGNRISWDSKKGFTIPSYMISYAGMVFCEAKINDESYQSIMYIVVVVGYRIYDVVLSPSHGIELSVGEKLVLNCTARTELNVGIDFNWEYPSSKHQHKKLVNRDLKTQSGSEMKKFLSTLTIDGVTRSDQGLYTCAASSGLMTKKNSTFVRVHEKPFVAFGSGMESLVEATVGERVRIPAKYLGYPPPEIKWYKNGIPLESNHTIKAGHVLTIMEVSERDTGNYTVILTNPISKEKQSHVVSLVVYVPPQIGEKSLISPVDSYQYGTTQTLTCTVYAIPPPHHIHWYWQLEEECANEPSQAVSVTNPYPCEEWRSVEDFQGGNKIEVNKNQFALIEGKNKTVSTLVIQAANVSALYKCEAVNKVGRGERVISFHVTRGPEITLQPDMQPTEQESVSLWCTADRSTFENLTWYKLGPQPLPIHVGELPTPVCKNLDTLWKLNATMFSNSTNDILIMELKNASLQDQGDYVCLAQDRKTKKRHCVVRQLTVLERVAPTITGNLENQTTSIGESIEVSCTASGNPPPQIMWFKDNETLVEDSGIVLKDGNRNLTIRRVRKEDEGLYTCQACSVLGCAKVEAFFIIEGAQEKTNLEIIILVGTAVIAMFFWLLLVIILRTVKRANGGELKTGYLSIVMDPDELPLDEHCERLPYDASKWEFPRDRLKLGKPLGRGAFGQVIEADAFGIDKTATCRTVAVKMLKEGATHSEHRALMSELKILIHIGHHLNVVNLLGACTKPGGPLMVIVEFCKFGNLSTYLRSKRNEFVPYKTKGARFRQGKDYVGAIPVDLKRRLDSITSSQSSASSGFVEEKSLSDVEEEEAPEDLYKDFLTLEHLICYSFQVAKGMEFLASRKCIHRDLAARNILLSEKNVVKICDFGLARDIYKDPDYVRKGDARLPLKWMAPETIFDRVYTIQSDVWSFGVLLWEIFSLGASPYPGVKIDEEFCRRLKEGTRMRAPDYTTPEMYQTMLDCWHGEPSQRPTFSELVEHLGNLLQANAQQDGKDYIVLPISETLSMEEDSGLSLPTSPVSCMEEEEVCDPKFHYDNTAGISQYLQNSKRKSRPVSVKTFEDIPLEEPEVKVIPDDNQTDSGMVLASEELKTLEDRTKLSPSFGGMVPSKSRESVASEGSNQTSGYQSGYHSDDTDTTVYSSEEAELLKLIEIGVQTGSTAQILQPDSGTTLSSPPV
Epidermal growth factor receptor, sequence (P00533 whole entry): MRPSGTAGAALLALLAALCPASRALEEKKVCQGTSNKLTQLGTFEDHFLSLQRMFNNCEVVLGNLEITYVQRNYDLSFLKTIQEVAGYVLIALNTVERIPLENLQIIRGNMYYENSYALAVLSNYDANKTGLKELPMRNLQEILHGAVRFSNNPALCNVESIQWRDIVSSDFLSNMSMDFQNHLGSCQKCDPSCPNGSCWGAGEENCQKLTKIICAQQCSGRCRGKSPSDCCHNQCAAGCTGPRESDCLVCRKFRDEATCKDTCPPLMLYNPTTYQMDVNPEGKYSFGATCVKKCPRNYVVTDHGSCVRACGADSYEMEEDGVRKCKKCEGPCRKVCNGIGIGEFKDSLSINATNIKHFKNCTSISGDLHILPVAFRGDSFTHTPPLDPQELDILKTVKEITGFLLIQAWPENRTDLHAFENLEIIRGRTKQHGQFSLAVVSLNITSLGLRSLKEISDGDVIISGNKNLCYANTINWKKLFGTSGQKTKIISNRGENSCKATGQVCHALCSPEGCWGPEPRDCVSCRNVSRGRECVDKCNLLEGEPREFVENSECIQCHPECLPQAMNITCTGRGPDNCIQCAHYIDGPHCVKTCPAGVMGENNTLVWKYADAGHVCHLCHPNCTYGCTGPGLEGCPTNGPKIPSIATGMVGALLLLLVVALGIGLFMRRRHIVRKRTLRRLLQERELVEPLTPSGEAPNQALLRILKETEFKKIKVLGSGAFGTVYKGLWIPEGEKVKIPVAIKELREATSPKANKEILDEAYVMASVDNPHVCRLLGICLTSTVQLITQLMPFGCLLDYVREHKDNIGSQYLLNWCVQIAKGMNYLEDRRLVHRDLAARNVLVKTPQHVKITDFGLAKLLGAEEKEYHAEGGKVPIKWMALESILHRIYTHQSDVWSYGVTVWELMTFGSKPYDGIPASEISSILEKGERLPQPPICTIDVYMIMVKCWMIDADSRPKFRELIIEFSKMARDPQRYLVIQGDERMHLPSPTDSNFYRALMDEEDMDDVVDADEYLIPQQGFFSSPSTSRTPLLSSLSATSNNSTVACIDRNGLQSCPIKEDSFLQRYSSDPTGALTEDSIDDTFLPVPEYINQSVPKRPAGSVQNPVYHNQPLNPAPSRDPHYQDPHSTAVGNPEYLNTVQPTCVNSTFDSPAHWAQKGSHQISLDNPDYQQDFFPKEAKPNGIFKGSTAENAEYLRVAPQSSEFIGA

Row | Structure (SMILES) | IC50 (HepG2) [µM] | IC50 (HeLa) [µM] | IC50 (MCF7) [µM] | CC50 at 48 h [1] [µM] | IC50 (A549) [µM] | IC50 [2] [µM] | IC50 [3] [µM] | IC50 [4] [µM] | IC50 [5] [µM]
1 | O=C(Nc1cnn(-c2ccccc2)c1)c1cccc(NS(=O)(=O)c2ccccc2)c1 | 10.1 | 15.3 | 4.32 | 110 | 26.8 | 15.4 | 18.6 | 3.26 | 18.2
2 | O=C(Nc1cnn(-c2ccccc2)c1)c1ccc(NS(=O)(=O)c2ccc(Cl)cc2)cc1 | 15.2 | 18.4 | 5.25 | 125 | 33.9 |  | 19.4 | 3.71 | 21.6
3 | COc1ccc(-n2cc(NC(=O)c3cccc(NS(=O)(=O)c4ccccc4)c3)cn2)cc1 | 35.7 | 42.2 | 18.7 |  | 76.8 | 27 | 38.5 | 10.4 | 37
4 | COc1ccc(-n2cc(NC(=O)c3ccc(NS(=O)(=O)c4ccccc4)cc3)cn2)cc1 | 57.3 | 47.2 | 25.6 |  | 85.8 | 26.1 | 36.8 | 14.5 | 45.3
5 | Cc1ccc(-n2cc(NC(=O)c3cccc(NS(=O)(=O)c4ccccc4)c3)cn2)cc1 | 6.05 | 3.12 | 1.69 | 93.8 | 18.9 | 9.57 | 15.7 | 0.58 | 16.2
6 | COc1cccc(-n2cc(NC(=O)c3cccc(NS(=O)(=O)c4ccc(Cl)cc4)c3)cn2)c1 | 19.6 | 25 | 9.43 | 133 | 44.4 | 15.6 | 24.4 | 5.97 | 22.2
7 | Cn1cc(NC(=O)c2ccc(NS(=O)(=O)c3ccccc3)cc2)cn1 | > 100 | 92.8 | 58.7 |  | > 100 | 36.8 | 42.6 | 25.2 | 62.1
8 | Cn1cc(NC(=O)c2cccc(NS(=O)(=O)c3ccc(Cl)cc3)c2)cn1 | 82.7 | 63 | 32.3 |  | > 100 |  | 39.9 | 17.4 | 58.9
9 | O=C(Nc1cnn(-c2ccccc2)c1)c1cccc(NS(=O)(=O)c2ccc(Cl)cc2)c1 | 8.54 | 5.41 | 3.13 | 120 | 19.3 | 10.6 | 17.6 | 2.39 | 18.5
10 | COc1ccc(-n2cc(NC(=O)c3cccc(NS(=O)(=O)c4ccc(Cl)cc4)c3)cn2)cc1 | 15.2 | 19.7 | 8.72 | 89.8 | 29.7 | 15.3 | 21.7 | 5.15 | 25.5
